According to PMC4987650, “Structural Investigation of Park’s Nucleotide on Bacterial Translocase MraY: Discovery of Unexpected MraY Inhibitors” (Scientific Reports, 2016):
“Also recorded” adds a separate entry of the source.

Key:
[1] = test system: CC(=O)N[C@H]1[C@@H](OP(=O)(O)OP(=O)(O)OC[C@H]2O[C@@H](n3ccc(=O)[nH]c3=O)[C@H](O)[C@@H]2O)O[C@H](CO)[C@@H](O)[C@@H]1O[C@H](C)C(=O)N[C@@H](C)C(=O)N[C@H](CCC(=O)N[C@@H](CCCCNC(=O)CCCCCNc1ccc([N+](=O)[O-])c2nonc12)C(=O)N[C@H](C)C(=O)N[C@H](C)C(=O)O)C(=O)O; test: Fluorescent enhancement assay, mutant MraY; format: biochemical, Bacillus subtilis; conditions: pH 8.0; 37.0 °C
Method: Site–directed mutagenesis of MraY. Site-directed mutagenesis of the B. subtilis MBP-tagged MraY enzyme was performed directly on the pMAL -BS-MraY-16 expression plasmid by using the “Quickchanged XL Site-Directed Mutagenesis Kit ’’ from stratagene and the oligonucleotides shown below. Mutations introduced in the mraY gene sequence were checked by DNA sequencing. […]
MraY-T51A-R 5’-[…]-3’
T53A MraY-T53A-F 5’-[…]-3’
MraY-T53A-R 5’-[…]-3’
K102A MraY-K102A-F 5’-[…]-3’
MraY-K102A-R 5’-[…]-3’
K226A Mray-K226A-F 5’-[…]-3’ […]
F228A MraY-F228A-F 5’-[…]-3’
MraY-F228A-R 5’-[…]-3’
Q271A Mray-Q271A-F 5’-[…]-3’
Mray-Q271A-R 5’-[…]-3’
R281A MraY-R281A-F 5’-[…]-3’
MraY-R281A-R 5’-[…]-3’
W297A MraY-W297A-F 5’-[…]-3’
MraY-W297A-R 5’-[…]-3’
(§1) Determine kinetic parameters by MraY fluorescence enhancement assay. The fluorescence enhancement assay was performed in 384-well plate as described by Bugg et al. with slight modifications.5 The reaction mixture containing MraYBS (10 μg/mL), C55P (200 μM) in 30 μL reaction buffer (30 mM Tris, 10 mM MgCl2, 10 mM NaCl, 0.1 mM Tween-20, 2.5% DMSO, pH 8.0) were pre-incubated at 37 °C for 15 min. The reactions were initiated by the addition of various concentrations of NBD-Park’s nucleotide 6 (0 to 160 μM). For inhibition study, a various concentrations of inhibitors were added before the addition of substrate 6. The continuous fluorescence increase over 60 min was monitored with λex 466 nm/λem 535 nm by fluorescence microplate reader (SpectraMax M5, Molecular Devices, LLC) at 37 °C. Linear regressions of increased fluorescent units (FLU) versus time (min) were used to calculate the initial velocities for each reaction. The kinetic parameters values (Ki, KM, and Vmax) were obtained by nonlinear regression analysis using the […] equation with the GraphPad Prism program (GraphPad Software, San
(§2) (1 picture or pasted object on this page, not shown here)

B. subtilis = test: Minimal inhibitory concentration, broth dilution; format: cell-based, B. subtilis (BCRC 10614); conditions: Bacillus subtilis, standard broth dilution
Method: (§3) Determination of Minimal Inhibition Concentration (MIC). B. subtilis (BCRC 10614) and S. aureus (BCRC 11863) was obtained from Bioresource Collection and Research Center (BCRC), Taiwan. The minimal inhibitory concentration of tested compounds was determined following the NCCLS standard. The experiments were conducted in 96-well microtiter plates using 16-point 2-fold dilutions in Muller-Hilton broth. Exponentially growing cells at 5 × 10^5 cells/mL were incubated with test compounds at various concentrations in a final volume of 100 μL. After an 18 to 24 h incubation at 37 °C, the minimal concentration of the compound that prevents at least 95% bacterial growth was determined as the MIC value of a given molecule.
as §2

S. aureus = test: Minimal inhibitory concentration, broth dilution; format: cell-based, S. aureus (BCRC 11863); conditions: Staphylococcus aureus, standard broth dilution
Method: as §3, §2

MraYBS [2] = target: T1, MraYBS (Bacillus subtilis, UniProt Q03521); test: MraY fluorescence enhancement assay (kinetics, inhibition); format: biochemical; conditions: for Inhibition Mode: Lineweaver-Burk, 6 as substrate
T1 construct: MBP; made in house
T1 sequence (Q03521 1-324): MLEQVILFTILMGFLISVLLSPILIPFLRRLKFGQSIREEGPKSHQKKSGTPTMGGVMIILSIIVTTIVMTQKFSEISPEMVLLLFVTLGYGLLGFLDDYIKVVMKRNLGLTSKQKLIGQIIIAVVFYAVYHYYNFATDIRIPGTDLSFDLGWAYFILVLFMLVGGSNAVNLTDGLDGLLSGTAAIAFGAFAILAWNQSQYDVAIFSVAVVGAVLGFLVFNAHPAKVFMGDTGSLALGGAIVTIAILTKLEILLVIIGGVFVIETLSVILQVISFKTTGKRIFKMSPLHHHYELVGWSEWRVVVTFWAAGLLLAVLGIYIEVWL
Method: as §1

MraYBS [3] = target: T1, MraYBS; test: Biolayer interferometry-based (BLI) binding assay
Method: MraYBS binding was measured in a biolayer interferometry-based binding assay on Octet Red96® instrument (ForteBio, Inc.). The biotinylation of MraYBS was performed with using EZ-Link® Sulfo-NHS-LC-LC-Biotin Kit (Thermo Fisher Scientific, Inc.). In general, MraYBS (1.7 mg/mL) in 50 μL reaction buffer (0.01 M HEPES pH 7.4, 0.15 M NaCl, 0.005% v/v Surfactant P20), was added by the sulfo-NHS-LC-LC-biotin reagent (1 mM, 1 μL). After incubating for 30 minutes at room temperature, the biotinylated-MraYBS was purified by a Zeba^TM Spin Desalting Columns, 7K MWCO (Thermo Fisher Scientific, Inc.), and the buffer was changed to the binding buffer (30 mM Tris, 10 mM MgCl2, 10 mM NaCl, 0.1 mM Tween-20, pH 8.0) during the purification. Comparing to the non-biotinylated-MraYBS, the biotinylated-MraYBS remains 62% activity measured by the HPLC-based MraY functional assay in 1 h reaction. The biotinylated MraYBS was then immobilized to Super Streptavidin (SSA) Octet tips (ForteBio, Inc.) for reaching a fixed signal of 3 nm. Before the assay starting, the MraYBS-labeled SSA sensors were pre-soaked in binding buffer for 30 min. The association of Park’s analogues with MraYBS were measured by incubating MraYBS-labeled SSA sensors in binding buffer containing various concentrations of samples in Octet Red system. The dissociation was monitored by moving the ligand biosenors from the analyte solution to binding buffer. The dissociation constants (KD) were obtained by nonlinear regression analysis using the specific binding model with the GraphPad Prism program (GraphPad Software, San Diego, CA).

MraYBS [4] = target: T1, MraYBS; test: HPLC-based MraY functional assay (substrate activity); format: biochemical; conditions: Park's nucleotides 10 μM, MraYBS 40 μg/mL, C55P 1 mM, 37 °C, 24 h
Method: The purified MraY from Bacillus subtilis was prepared as described in our previous reports. […] […] The reaction mixtures were added by uridine (0.01 mg/mL) as the internal standard and heated to 100 °C to stop the transferring reaction. The samples were analyzed by RP-C18 HPLC with gradient elution of 0.25 M NH4HCO3(aq)/15% MeOH in water (100:0 to 0:100) at a flow rate of 1 mL/min over 45 min, and the peaks of substrates were monitored at UV 260 nm. For 6 and 11–17, the reaction mixture containing MraYBS (10 μg/mL), C55P (200 μM), 6-(7-Nitro-2,1,3-benzoxadiazol-4-ylamino)hexanoic acid (5 μM, internal standard) in 10 μL reaction buffer (30 mM Tris, 10 mM MgCl2, 10 mM NaCl, 0.1 mM Tween-20, 2.5% DMSO, pH 8.0) were pre-incubated at 37 °C for 15 min. […] The reaction mixtures were heated to 100 °C to stop the transferring reaction, and samples were analyzed by an anion-exchange column (SAX1, Supelco Co., 5 μm, 4.6 × 250 mm) with a linear gradient elution of NH4OAc (20 mM to 1 M in MeOH) at a flow rate of 1.0 mL/min over 30 min. The fluorescent substrates were monitored with λex 466 nm/λem 535 nm by fluorescence detector.

[5] = substrate: CC(=O)N[C@H]1[C@@H](OP(=O)(O)OP(=O)(O)OC[C@H]2O[C@@H](n3ccc(=O)[nH]c3=O)[C@H](O)[C@@H]2O)O[C@H](CO)[C@@H](O)[C@@H]1O[C@H](C)C(=O)N[C@@H](C)C(=O)N[C@H](CCC(=O)N[C@@H](CCCCNC(=O)CCCCCNc1ccc([N+](=O)[O-])c2nonc12)C(=O)N[C@H](C)C(=O)N[C@H](C)C(=O)O)C(=O)O; test: MraY fluorescence enhancement assay (kinetics, inhibition); format: biochemical, Bacillus subtilis; conditions: other: WT MraYBS, 6 as the substrate; pH 8.0; 37.0 °C
Method: as §1

Molecule: MraYBS K102A mutant (Bacillus subtilis subsp. subtilis str. 168; K102A)
- Km [1]: 49 ± 9 µM

Molecule: MraYBS T51A mutant (Bacillus subtilis subsp. subtilis str. 168; T51A)
- Km [1]: 24 ± 2 µM

Molecule: MraYBS T53A mutant (Bacillus subtilis subsp. subtilis str. 168; T53A)
- Km [1]: 70 ± 11 µM

Molecule: CC(=O)N[C@H]1[C@@H](OP(=O)(O)OP(=O)(O)OC[C@H]2O[C@@H](n3cc(NC(=O)Cc4ccc(C)cc4)c(=O)[nH]c3=O)[C@H](O)[C@@H]2O)O[C@H](CO)[C@@H](O)[C@@H]1O[C@H](C)C(=O)N[C@@H](C)C(=O)O [Compound 20]
- MIC (B. subtilis): > 200 µM
- MIC (S. aureus): > 200 µM
- Ki (MraYBS [2]): 11 ± 3 µM
- difference of inhibition abilities (Ki values) of 19 and 20 (MraYBS [2]): 70 fold
- Inhibition Mode (MraYBS [2]): Competitive
- Kd (MraYBS [3]): 197 ± 47 µM
- binding affinity fold stronger than that of 19 (MraYBS [3]; ratio of KD): approximately 1.5 fold

Molecule: MraYBS R281A mutant (Bacillus subtilis subsp. subtilis str. 168; R281A)
- Km [1]: 20 ± 1 µM

Molecule: MraYBS K226A mutant (Bacillus subtilis subsp. subtilis str. 168; K226A)
- Km [1]: 24 ± 3 µM

Molecule: MraYBS Q271A mutant (Bacillus subtilis subsp. subtilis str. 168; Q271A)
- Km [1]: 72 ± 11 µM

Molecule: CC(=O)N[C@H]1[C@@H](OP(=O)(O)OP(=O)(O)OC[C@H]2O[C@@H](n3cc(NC(=O)Cc4ccc(C)cc4)c(=O)[nH]c3=O)[C@H](O)[C@@H]2O)O[C@H](CO)[C@@H](O)[C@@H]1O[C@H](C)C(=O)N[C@@H](C)C(=O)N[C@H](CCC(=O)N[C@@H](CCCCN)C(=O)N[C@H](C)C(=O)N[C@H](C)C(=O)O)C(=O)O [Compound 22]
- MIC (B. subtilis): > 200 µM
- MIC (S. aureus): > 200 µM
- Ki (MraYBS [2]): 4 ± 1 µM
- potency relative to tunicamycins (Ki) (MraYBS [2]): approximately two-fold; also recorded: roughly twice
- Inhibition Mode (MraYBS [2]): Competitive
- Kd (MraYBS [3]): 86 ± 12 µM
- binding affinity fold stronger than that of 20 (MraYBS [3]; ratio of KD): approximately 2.3 fold
- substrate under extreme reaction conditions (MraYBS [4]): not be a substrate

Molecule: MraYBS W297A mutant (Bacillus subtilis subsp. subtilis str. 168; W297A)
- Km [1]: 63 ± 9 µM

Molecule: MraYBS F228A mutant (Bacillus subtilis subsp. subtilis str. 168; F228A)
- Km [1]: 18 ± 2 µM

B1: MraYBS (Bacillus subtilis subsp. subtilis str. 168) (protein)
chain: T1 sequence (Q03521 1-324)
notes: MBP; made in house
- Km [5]: 18 ± 1 µM
